According to patent US20090117593A1, “T. Cruzi-derived neurotrophic agents and methods of use therefor” (Tufts University, priority 2006, published 2009):
Entries after “also recorded” stand apart in the source; their conditions may differ.

Columns and labels:
Format in all cases: cell-based
PC12^TrkA cells [1] = assay: Survival of PC12^TrkA cells in serum-free medium (MTT, DAPI); conditions: peptides 10 μM, PDNF 500 ng/ml, NGF 30 ng/ml; 48 hours to 5 days
Protocol: (§1) PC12^nnr5 and PC12^TrkA cells were grown in RPMI with 10% FCS and 5% horse serum as described earlier (Green et al., J. Cell Biol. 102:830-843 (1986); Chuenkova and Pereira, Mol. Biol. Cell 11: 1487-1498 (2000)). Two approaches were used to study neurite extension: 1) Plating cells (1×10^5 cells/ml) on plastic wells (LABTECH 16-well slides, Nalge Nunc International, Naperville, Ill.) coated with synthetic peptides (100 μg/ml water, 4° C., overnight) or rat tail collagen (1 mg/ml PBS, 4° C., overnight). 2) Adding peptides in solution to cells plated on uncoated substratum. Cells were grown in 1% FCS-containing RPMI for 72 hours, and reacted with 0.5 mg/ml MTT (3-[4,5-dimethylthiazol-2-yl]-2,5-diphenyltetrazolium bromide) (SIGMA, St. Louis, Mo.) in serum-free medium for 1 hour at 37° C. Light microscopy was used to visualize viable cells (i.e., containing reduced insoluble formazan) with or without extended neurites (>5 μm in length). Cell viability was also determined using the CELLTITER 96 assay (Promega, Madison, Wis.) as follows: Cells, plated at 2×10^5/ml, were treated with peptides in serum-free medium for different times and exposed to CELLTITER 96 Aqueous One Solution for 1 hour at 37° C. 2) Apoptotic cells were identified by staining with DAPI (250 ng/ml) (SIGMA) 48 hours after cells were exposed to serum-free medium with or without additives in solution, as described earlier (Chuenkova and Pereira, Mol. Biol. Cell 11:1487-1498 (2000)). […]

[2] = tested on: PC12 cells or Schwann cells; assay: Inhibition of apoptosis of PC12 cells or Schwann cells by synthetic peptides
PC12 cells = conditions: serum-free RPMI/0.2% BSA, collagen coated dishes, 16-17 hours
PC12^TrkA cells [3] = assay: Neurite extension of PC12^TrkA cells; conditions: coated substratum or in medium (10 μM), 1% FCS
Protocol: as §1, with “C.” for “C. 2) Apoptotic cells were identified by staining with DAPI (250 ng/ml) (SIGMA) 48 hours after cells were exposed to serum-free medium with or without additives in solution, as described earlier (Chuenkova and Pereira, Mol. Biol. Cell 11:1487-1498 (2000)).”

Erk1/2 = Erk1/2 phosphorylation in PC12 cells; conditions: 5 minutes; control peptides 10 μM
Protocol: Activation state of TrkA, Erk1/2 and Akt kinases and transcription factor CREB was analyzed by assessing phosphorylation by Western blot with appropriate phospho-specific antibodies. For this, cells were plated in complete medium at a density of 3×10^5 cells/ml overnight on 6-well plates (BECTON DICKINSON LABWARE, Franklin Lakes, N.J.). The medium was changed to serum-free medium and the cells cultured for an additional 24 hours to reduce background phosphorylation. […] Antibody reaction was visualized by horseradish peroxidase (HRP)-conjugated secondary antibody and enhanced chemiluminescence kit (ECL). Some blots were stripped in appropriate buffer (50 mM Tris HCl, pH 7.8, 2% SDS, 1% β-mercaptoethanol) at 50° C. for 60 minutes and re-probed with p42/44MAPK, Akt or CREB antibody to ensure equal loading of proteins. For immunoprecipitation experiments, cell lysates were pre-adsorbed on protein G-Sepharose for 1 hour at 4° C. and after brief centrifugation supernatants were incubated with anti-TrkA antibody for 24 hours at 4° C. with gentle rocking. Formed immunocomplexes were captured on protein G-Sepharose, eluted with SDS-PAGE sample buffer and analyzed by immunoblotting with antibody against phospho-TrkA receptor.

neuroblastoma N18 cells = assay: Neurite outgrowth assay in N18 cells; conditions: soluble or immobilized on plastic (500 μg/ml coating), 17 hours
Protocol: 96-well microtiter plates were coated overnight at 4° C. with the TS or peptides or fragments thereof, or with control proteins laminin (Ln) or bovine serum albumin (BSA) at 500 μg/ml. After removing the compounds, the plates were further incubated with 1% BSA for 1 hour at room temperature and immediately used as substratum for PC12 or N18 (Prasad, K., Biol. Rev. Camb. Philos. Soc., 66:431-451 (1991)) cells in serum-free RPMI/0.2% BSA. Neurite outgrowth was measured using a phase-contrast microscope 17 hours later.

| Substance | survival of PC12^TrkA cells in serum-free medium (PC12^TrkA cells [1]) | suppression of apoptosis of PC12 cells or Schwann cells [2] | neurite outgrowth in PC12 cells (PC12 cells) | neurite extension / differentiation of PC12^TrkA cells (PC12^TrkA cells [3]) | Erk1/2 phosphorylation in PC12 cells (Erk1/2) | neurite outgrowth in N18 cells (neuroblastoma N18 cells) |
| --- | --- | --- | --- | --- | --- | --- |
| DSSAHGTPSTPA [peptide TR] | inactive; also recorded: did not significantly promoted cell survival; also recorded: did not support survival and neurite extension | did not inhibit apoptosis | did not induce neurite outgrowth; also recorded: did not promote neurite outgrowth | did not spread and extend neurites; also recorded: did not support survival and neurite extension | did not activate Erk | – |
| laminin [reference compound] | – | – | – | – | – | induced |
